We go through 14 compounds from patent EP4603105A1, “PHARMACEUTICAL COMPOSITION CONTAINING CYCLIC COMPOUND HAVING SELECTIVE KRAS INHIBITORY EFFECT AGAINST HRAS AND NRAS” (CHUGAI SEIYAKU KABUSHIKI KAISHA, priority 2022, dated 2024).

Experiment [1] addresses GDP-bound KRAS wild-type protein (Homo sapiens, UniProt P01116). Briefly: Binding to KRAS by surface plasmon resonance (SPR), dissociation constant KD. As to conditions: Single Cycle Kinetics. Put shortly: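 Read-out is KD from 1:1 fitting of single-cycle kinetics sensorgrams, blank-cycle and reference-surface corrected. Proteins were GDP-loaded, biotinylated Avi-fusions freshly captured each cycle at roughly 100–300 RU. Runs were at 30°C in HBS pH 7.4 with MgCl2, GDP and 4% DMSO.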

Experiment [2] has as its target HRAS wild-type protein (Homo sapiens, UniProt P01112). The experiment in a line: Binding to HRAS by surface plasmon resonance (SPR), KD and KD ratio to KRAS. As to conditions: ratio of KD for HRAS wild-type protein to KD for KRAS. The method, boiled down:
(§1)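 Biotinylated GDP-bound RAS was captured at about 100–300 RU. Running buffer: HBS pH 7.4, 10 mM MgCl2, 10 µM GDP, 1 mM DTT, 0.01% Tween 20, 4% DMSO.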

Experiment [3] concerns the target GDP-bound NRAS wild-type protein (Homo sapiens, UniProt P01111). Briefly: Binding to NRAS by surface plasmon resonance (SPR), KD and KD ratio to KRAS. Conditions: ratio of KD for GDP-bound NRAS wild-type protein to KD for KRAS. Put shortly:
as §1

In experiment [4] the test system is human lung cancer strain NCI-H441. It is filed as cell-based. The method, boiled down:
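Step one: dispense the test compound in serial DMSO dilutions. Step three: add the reagent and measure […].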

Sequence of GDP-bound KRAS wild-type protein (P01116 1-188 isoform P01116-2): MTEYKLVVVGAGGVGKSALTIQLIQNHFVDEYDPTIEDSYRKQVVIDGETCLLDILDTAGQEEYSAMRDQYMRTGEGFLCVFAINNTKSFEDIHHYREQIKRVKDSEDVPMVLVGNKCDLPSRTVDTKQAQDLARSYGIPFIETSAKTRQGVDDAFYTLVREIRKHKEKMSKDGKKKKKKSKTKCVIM
Sequence of HRAS wild-type protein (P01112 whole entry): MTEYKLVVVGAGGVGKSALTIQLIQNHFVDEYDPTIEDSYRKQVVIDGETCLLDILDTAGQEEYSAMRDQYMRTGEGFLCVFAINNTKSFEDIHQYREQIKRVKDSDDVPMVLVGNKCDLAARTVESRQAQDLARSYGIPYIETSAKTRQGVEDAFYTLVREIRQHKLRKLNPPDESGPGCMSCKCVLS
Sequence of GDP-bound NRAS wild-type protein (P01111 whole entry): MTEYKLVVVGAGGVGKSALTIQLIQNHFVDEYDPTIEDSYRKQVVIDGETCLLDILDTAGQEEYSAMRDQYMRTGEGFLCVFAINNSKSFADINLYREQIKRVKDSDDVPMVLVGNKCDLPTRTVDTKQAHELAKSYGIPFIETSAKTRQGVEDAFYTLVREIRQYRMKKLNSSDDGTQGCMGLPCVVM

The compound `CCO[C@@H]1C[C@H]2C(=O)NC3(CCC3)C(=O)N(C)[C@@H](C3CCCC3)C(=O)N(C)[C@H](C(=O)N3CCOCC3)CC(=O)N(C)[C@@H](CC(C)C)C(=O)N[C@@H]([C@@H](C)CC)C(=O)N(C)CC(=O)N(C)[C@H]3CCCCCN(C3=O)[C@@H](Cc3nccs3)C(=O)N(C)CC(=O)N[C@@H](CCc3cc(F)c(C(F)(F)F)c(F)c3)C(=O)N2C1` [PP0923] returned a dissociation constant (Kd) in experiment [1] of 1.6 nM. In experiment [2], the “HRAS /KRAS” value is “B (a compound having 3 or more and less than 10 is denoted as B)”. The “NRAS /KRAS” value in experiment [3] was “B (a compound having 3 or more and less than 10 is denoted as B)”. The compound also registered an IC50 in experiment [4] of 445 nM.

In experiment [1], `CCO[C@@H]1C[C@H]2C(=O)NC3(CCC3)C(=O)N(C)[C@@H](C3CCCC3)C(=O)N(C)[C@H](C(=O)N(C)C)CC(=O)N(C)[C@@H](Cc3ccccc3C)C(=O)N[C@@H]([C@@H](C)CC)C(=O)N(C)CC(=O)N(C)[C@H]3CCCCCN(C3=O)[C@@H](Cc3ccc(C(F)(F)F)cc3)C(=O)N(C)CC(=O)N[C@@H](CCc3cc(F)c(C(F)(F)F)c(F)c3)C(=O)N2C1` [PP0941] gave a Kd of 1.2 nM. Besides, in experiment [2], the “HRAS /KRAS” value was “B (a compound having 3 or more and less than 10 is denoted as B)”. In addition, in experiment [3], the “NRAS /KRAS” value was “B (a compound having 3 or more and less than 10 is denoted as B)”. For the same compound, in experiment [4], the IC50 turned out to be 63.9 nM.

`CC[C@H](C)[C@@H]1NC(=O)[C@H](CC(C)C)N(C)C(=O)C[C@@H](C(=O)N2CCOCC2)N(CC)C(=O)[C@H](C2CCCC2)N(C)C(=O)C2(CCC2)NC(=O)[C@@H]2CC(F)(F)CN2C(=O)[C@H](CCc2cc(F)c(C(F)(F)F)c(F)c2)NC(=O)CN(C)C(=O)[C@H](Cc2ccc(C(F)(F)F)cc2)N2CCCCC[C@@H](C2=O)N(C)C(=O)CN(C)C1=O` [PP0954] showed a Kd in experiment [1] of 7.5 nM. Also, in experiment [2], the “HRAS /KRAS” value was “A (a compound having 10 or more and less than 20 is denoted as A)”. Moreover, the “NRAS /KRAS” value in experiment [3] is “A (a compound having 10 or more and less than 20 is denoted as A)”. The compound also came in with a half-inhibitory concentration (IC50) in experiment [4] of 438 nM.

Take `CCO[C@@H]1C[C@H]2C(=O)NC(C)(C)C(=O)N(C)[C@@H](C3CCCC3)C(=O)N(CC)[C@H](C(=O)N3CCOCC3)CC(=O)N(C)[C@@H](CC(C)C)C(=O)N[C@@H]([C@@H](C)CC)C(=O)N(C)CC(=O)N(C)[C@H]3CCCCCN(C3=O)[C@@H](Cc3ccc(C(F)(F)F)cc3)C(=O)N(C)CC(=O)N[C@@H](CCc3cc(F)c(C(F)(F)F)c(F)c3)C(=O)N2C1` [PP0958]: the dissociation constant (Kd) in experiment [1] is 7.5 nM. Besides, the “HRAS /KRAS” value in experiment [2] was “B (a compound having 3 or more and less than 10 is denoted as B)”. In addition, the “NRAS /KRAS” value in experiment [3] is “B (a compound having 3 or more and less than 10 is denoted as B)”. The compound also yielded a half-maximal inhibitory concentration (IC50) in experiment [4] of 1040 nM.

`CC[C@H](C)[C@@H]1NC(=O)[C@H](CC)N(C)C(=O)C[C@@H](C(=O)N2CCOCC2)N(C)C(=O)[C@H](C2CCCC2)N(C)C(=O)C2(CCCC2)NC(=O)[C@@H]2CCCN2C(=O)[C@H](CCc2ccc(C(F)(F)F)c(Cl)c2)NC(=O)CN(C)C(=O)[C@H](Cc2ccc(F)cc2)N2CCCCC[C@@H](C2=O)N(C)C(=O)CN(C)C1=O` [PP0959] showed a Kd in experiment [1] of 0.39 nM. Further, the “HRAS /KRAS” value in experiment [2] was “B (a compound having 3 or more and less than 10 is denoted as B)”. Besides, the “NRAS /KRAS” value in experiment [3] was “B (a compound having 3 or more and less than 10 is denoted as B)”. The compound further came in with a concentration for half-maximal inhibition (IC50) in experiment [4] of 156 nM.

With `CC[C@H](C)[C@@H]1NC(=O)[C@H](Cc2ccccc2)N(C)C(=O)C[C@@H](C(=O)N2CCOCC2)N(C)C(=O)[C@H](C2CCCC2)N(C)C(=O)C2(CCCC2)NC(=O)[C@@H]2CCCN2C(=O)[C@H](CCc2ccc(C(F)(F)F)c(Cl)c2)NC(=O)CN(C)C(=O)[C@H](Cc2ccc(F)cc2)N2CCCCC[C@@H](C2=O)N(C)C(=O)CN(C)C1=O` [PP0961], binding in experiment [1] was characterised by a dissociation constant (Kd) of 0.62 nM. The “HRAS /KRAS” value in experiment [2] is “B (a compound having 3 or more and less than 10 is denoted as B)”. The “NRAS /KRAS” value in experiment [3] was “B (a compound having 3 or more and less than 10 is denoted as B)”. This compound also registered an IC50 in experiment [4] of 53.6 nM.

Compound `CC[C@H](C)[C@@H]1NC(=O)[C@H](Cc2cccc(F)c2)N(C)C(=O)C[C@@H](C(=O)N2CCOCC2)N(C)C(=O)[C@H](C2CCCC2)N(C)C(=O)C2(CCCC2)NC(=O)[C@@H]2CCCN2C(=O)[C@H](CCc2ccc(C(F)(F)F)c(Cl)c2)NC(=O)CN(C)C(=O)[C@H](Cc2ccc(F)cc2)N2CCCCC[C@@H](C2=O)N(C)C(=O)CN(C)C1=O` [PP0962] displayed a Kd in experiment [1] of 0.65 nM. For the same compound, in experiment [2], the “HRAS /KRAS” value is “B (a compound having 3 or more and less than 10 is denoted as B)”. Moreover, in experiment [3], the “NRAS /KRAS” value was “B (a compound having 3 or more and less than 10 is denoted as B)”. Besides, the IC50 in experiment [4] is 83.9 nM.

`CC[C@H](C)[C@@H]1NC(=O)[C@H](Cc2cccc(Cl)c2)N(C)C(=O)C[C@@H](C(=O)N2CCOCC2)N(C)C(=O)[C@H](C2CCCC2)N(C)C(=O)C2(CCCC2)NC(=O)[C@@H]2CCCN2C(=O)[C@H](CCc2ccc(C(F)(F)F)c(Cl)c2)NC(=O)CN(C)C(=O)[C@H](Cc2ccc(F)cc2)N2CCCCC[C@@H](C2=O)N(C)C(=O)CN(C)C1=O` [PP0963] displayed a dissociation constant Kd in experiment [1] of 0.78 nM. The “HRAS /KRAS” value in experiment [2] is “B (a compound having 3 or more and less than 10 is denoted as B)”. The “NRAS /KRAS” value in experiment [3] is “B (a compound having 3 or more and less than 10 is denoted as B)”. In experiment [4], the IC50 was 100 nM.

In turn, `CC[C@H](C)[C@@H]1NC(=O)[C@H](CC(C)C)N(C)C(=O)C[C@@H](C(=O)N2CCOCC2)N(C)C(=O)[C@H](C2CCCC2)N(C)C(=O)C2(CCCC2)NC(=O)[C@@H]2CCCN2C(=O)[C@H](CCc2cc(F)c(C(F)(F)F)c(F)c2)NC(=O)CN(C)C(=O)[C@H](Cc2ccc(F)cc2)N2CCCCC[C@@H](C2=O)N(C)C(=O)CN(C)C1=O` [PP0964] yielded a dissociation constant Kd in experiment [1] of 0.59 nM. For the same compound, in experiment [2], the “HRAS /KRAS” value is “B (a compound having 3 or more and less than 10 is denoted as B)”. Besides, the “NRAS /KRAS” value in experiment [3] is “B (a compound having 3 or more and less than 10 is denoted as B)”. In addition, the IC50 in experiment [4] was determined as 56.6 nM.

As to `CCO[C@@H]1C[C@H]2C(=O)NC3(CCCC3)C(=O)N(C)[C@@H](C3CCCC3)C(=O)N(C)[C@H](C(=O)N3CCOCC3)CC(=O)N(C)[C@@H](CC(C)C)C(=O)N[C@@H]([C@@H](C)CC)C(=O)N(C)CC(=O)N(C)[C@H]3CCCCCN(C3=O)[C@@H](Cc3ccc(F)cc3)C(=O)N(C)CC(=O)N[C@@H](CCc3ccc(C(F)(F)F)c(Cl)c3)C(=O)N2C1` [PP0965], in experiment [1], binding was characterised by a dissociation constant (Kd) of 0.57 nM. The “HRAS /KRAS” value in experiment [2] was “B (a compound having 3 or more and less than 10 is denoted as B)”. In addition, the “NRAS /KRAS” value in experiment [3] is “B (a compound having 3 or more and less than 10 is denoted as B)”. In experiment [4], half-maximal inhibition (IC50) required 48.8 nM.

As to `CCO[C@@H]1C[C@H]2C(=O)NC3(CCC3)C(=O)N(C)[C@@H](C3CCCC3)C(=O)N(C)[C@H](C(=O)N3CCOCC3)CC(=O)N(C)[C@@H](CC(C)C)C(=O)N[C@@H]([C@@H](C)CC)C(=O)N(C)CC(=O)N(C)[C@H]3CCCCCN(C3=O)[C@@H](Cc3ccc(F)cc3)C(=O)N(C)CC(=O)N[C@@H](CCc3ccc(C(F)(F)F)c(Cl)c3)C(=O)N2C1` [PP0968], the dissociation constant Kd in experiment [1] amounted to 0.32 nM. Further, the “HRAS /KRAS” value in experiment [2] is “B (a compound having 3 or more and less than 10 is denoted as B)”. The “NRAS /KRAS” value in experiment [3] is “B (a compound having 3 or more and less than 10 is denoted as B)”. The compound further came in with an IC50 in experiment [4] of 38.8 nM.

`CC[C@H](C)[C@@H]1NC(=O)[C@H](CC(C)C)N(C)C(=O)C[C@@H](C(=O)N2CCOCC2)N(C)C(=O)[C@H](C2CCCC2)N(C)C(=O)C2(CCC2)NC(=O)[C@@H]2CC(F)(F)CN2C(=O)[C@H](CCc2ccc(C(F)(F)F)c(Cl)c2)NC(=O)CN(C)C(=O)[C@H](Cc2ccc(F)cc2)N2CCCCC[C@@H](C2=O)N(C)C(=O)CN(C)C1=O` [PP0969]: in experiment [1], the Kd was 0.12 nM. Further, the “HRAS /KRAS” value in experiment [2] is “B (a compound having 3 or more and less than 10 is denoted as B)”. Besides, the “NRAS /KRAS” value in experiment [3] is “B (a compound having 3 or more and less than 10 is denoted as B)”. In experiment [4], this compound showed an IC50 of 13.6 nM.

`CC[C@H](C)[C@@H]1NC(=O)[C@H](CC(C)C)N(C)C(=O)C[C@@H](C(=O)N(C)C)N(C)C(=O)[C@H](C2CCCC2)N(C)C(=O)C2(CCCC2)NC(=O)[C@@H]2CCCN2C(=O)[C@H](CCc2ccc(C(F)(F)F)c(Cl)c2)NC(=O)CN(C)C(=O)[C@H](Cc2ccc(F)cc2)N2CCCCC[C@@H](C2=O)N(C)C(=O)CN(C)C1=O` [PP0971]: the dissociation constant Kd in experiment [1] turned out to be 0.34 nM. For the same compound, in experiment [2], the “HRAS /KRAS” value is “B (a compound having 3 or more and less than 10 is denoted as B)”. The “NRAS /KRAS” value in experiment [3] was “B (a compound having 3 or more and less than 10 is denoted as B)”. In experiment [4], this compound came in with an IC50 of 54 nM.

As to `CCO[C@@H]1C[C@H]2C(=O)NC3(CCC3)C(=O)N(C)[C@@H](C3CCCC3)C(=O)N(C)[C@H](C(=O)N(C)C)CC(=O)N(C)[C@@H](CC(C)C)C(=O)N[C@@H]([C@@H](C)CC)C(=O)N(C)CC(=O)N(C)[C@H]3CCCCCN(C3=O)[C@@H](Cc3ccc(F)cc3)C(=O)N(C)CC(=O)N[C@@H](CCc3ccc(C(F)(F)F)c(Cl)c3)C(=O)N2C1` [PP0972], binding in experiment [1] was put at a Kd of 0.15 nM. In addition, the “HRAS /KRAS” value in experiment [2] is “B (a compound having 3 or more and less than 10 is denoted as B)”. For the same compound, in experiment [3], the “NRAS /KRAS” value is “B (a compound having 3 or more and less than 10 is denoted as B)”. The compound further showed an IC50 in experiment [4] of 15.8 nM.
